# In patent US20140057884A1, “PHARMACEUTICAL COMPOSITION FOR PREVENTING OR TREATING LIVER CANCER COMPRISING STIGMASTEROL AND 5 BETA-HYDROXYSITOSTANOL ISOLATED FROM NAVICULA INCERTA” (PUKYONG NATIONAL UNIVERSITY INDUSTRY-UNIVERSITY CO, priority 2012, published 2014):
# Like-named read-outs stand apart in the source and are kept apart here.
# How the values were obtained:
# Assay type in all cases: cell-based, human
# MTT cell viability assay = conditions: human
# Experimental: (§1) Cell viability was measured using MTT [3-(4,5-dimethylthiazol-2-yl)-2,5-diphenyltetrazolium bromide] assay utilizing […] MTT is reduced to purple formazan by the action of mitochondrial dehydrogenase which has viability only in living cells.
# (§2) The HepG2 cells were grown in 96-well plates at a density of 2×10^4 cells/well. After 24 h, cells were treated with different concentrations ([…], 20 μM) of stigmasterol and 5β-hydroxysitostanol. After incubation for 24 h, the cells were incubated with 100 μL of MTT (1 mg/mL) for 4 h. Finally, DMSO was added so that the amount of formazan crystal was determined by measuring the absorbance at 550 nm using a multidetection microplate reader.
# HepG2 cells [1] = test: MTT cell viability assay; conditions: for cell viability with increasing concentrations: HepG2 cells, 5-20 μM, 24 h
# Experimental: as §1, §2
# HepG2 cells [2] = test: Observation of morphological changes of the cells (light microscope; fluorescence microscope after Hoechst 33342 staining); conditions: 24 h; for shape of the attached HepG2 cells / number of attached cells (living cells): light microscope; for nuclei of the attached HepG2 cells: increasing concentrations (5, 10, 20 μM), Hoechst 33342, fluorescence microscope; for number of attached cells (living cells): increasing doses
# Experimental: HepG2 ells were grown in 12-well plates at a density of 2×10^4 cells/well. After overnight incubation, cells were treated with different concentrations ([…], 20 μM) of stigmasterol and 5β-hydroxysitostanol and incubated for another 24 h. The cells were washed with PBS. After washing, 4% (v/v) formaldehyde solution was dissolved in PBS and added to the plate, and left for 1 h at room temperature. The fixed cells were detected by a light microscope.
# Further, the HepG2 cells were grown in 12-well plates at a density of 2×10^4 cells/well. After overnight incubation, cells were treated with different concentrations (5 μM, 10 μM, 20 μM) of stigmasterol and 5β-hydroxysitostanol and incubated for another 24 h. The cells were then washed with PBS. After washing, 4% (v/v) formaldehyde solution was dissolved in PBS and added to the plate, and left for 1 h at room temperature so that cells were fixated. The fixed cells were stained with staining dye, Bisbenzimide Hoechst 33342 and left for 1 h at room temperature. The stained cells were observed under fluorescence microscope.
# HepG2 cells [3] = test: Cell cycle analysis (PI staining, FACS); conditions: for G2/M phase of the cell cycle as the concentration increased: HepG2 cells, 5, 10, 20 μM; for G2/M phase of the cell cycle: HepG2 cells, highest concentration (20 μM)
# Experimental: The HepG2 cells were cultured in 6 cm^2 dishes treated with different concentrations (5 μM, 10 μM, 20 μM) of stigmasterol and 5β-hydroxysitostanol. The cells were stained with propidium iodide (PI), and the cell cycle was analyzed by measuring the amount of DNA with FACS.
# HepG2 cells [4] = test: RT-PCR analysis of mRNA expression of apoptosis-related genes
# Experimental: HepG2 cells treated with stigmasterol and 5β-hydroxysitostanol were treated with TRIzol® reagent were transferred to microtubes at each concentration. 200 μl, of chloroform was added to each tube and microtubes were centrifuged at 12,000×g for 15 min. After centrifugation, supernatant phase was transferred to a new microtube and mixed with isopropanol at the ratio of 1:1. After incubation for 10 min at room temperature and centrifugation at 12,000×g for 10 min, supernatant was discarded and RNA pellet was washed, followed by centrifugation at 12,000×g for 15 min. Following removal of ethanol, RNA pellet was suspended in DEPC-treated water and so that RNA pellet was dissolved at 55° C. for 10 min. Dissolved RNA pellet was kept at −20° C. for further experiments.
# RT-PCR was performed to check specific mRNA expression in HepG2 cells.
# Thirteen μg of RNA dissolved in DEPC— treated water and 2 μL of oligo (di) were added to PCR microtubes and denaturated at 70° C. for 5 min in a thermal cycler. Later, RT-PCR mastermix was added to microtubes to synthesize cDNA. Primers corresponding to specific RNA were bound to the synthesized cDNA, and gene amplification was carried out with the thermal cycler. The PCR products were electrophoresed on 1% agarose gel and bands of the respective primers were checked with UV.
# HepG2 cells [5] = test: Western blotting assay; conditions: HepG2 cells, 5, 10, 20 μM, 24 h, Western blot
# Experimental: Western blotting assay was performed to investigate specific […] expression of HepG2 cells.
# HepG2 cells were cultured at a density of 1×10^4 cells/ml in 10 cm^2 culture dishes for 24 h. The cells were then treated with different concentrations (5 μM, 10 μM, 20 μM) of stigmasterol and 5β-hydroxysitostanol for 24 h. The cells were lysed in cell lysis buffer to give protein extract. The extracted protein was separated by molecular weight using SDS electrophoresis. Corresponding antibodies were attached to intended protein and the protein bands were detected with ECL solution using LAS-3000 system.
SMILES,"cytotoxicity at 24 h, 5 μM (MTT cell viability assay) [%]","cytotoxicity at 24 h, 10 μM (MTT cell viability assay) [%]","cytotoxicity at 24 h, 20 μM (MTT cell viability assay) [%]",cytotoxicity according to concentration (HepG2 cells [1]),cell viability with increasing concentrations (HepG2 cells [1]),shape of the attached HepG2 cells (HepG2 cells [2]),nuclei of the attached HepG2 cells (HepG2 cells [2]),number of attached cells (living cells) (HepG2 cells [2]),G2/M phase of the cell cycle as the concentration increased (HepG2 cells [3]),G2/M phase of the cell cycle (HepG2 cells [3]) [%],"expression of caspase-8, Bax and FASL (HepG2 cells [4])","expression of cell apoptosis inducing factors caspase-8, 9 (HepG2 cells [5])","cytotoxicity at 24 h, 5 μM (MTT cell viability assay; HepG2 cells, 5 μM, 24 h, MTT, read-out: inhibition of cell viability (rate)) [%]","cytotoxicity at 24 h, 10 μM (MTT cell viability assay; HepG2 cells, 10 μM, 24 h, MTT, read-out: inhibition of cell viability (rate)) [%]","cytotoxicity at 24 h, 20 μM (MTT cell viability assay; HepG2 cells, 20 μM, 24 h, MTT, read-out: inhibition of cell viability (rate)) [%]","expression of cell apoptosis inducing factors caspase-8, 9, Bax, p53, p21, FAS and FASL (HepG2 cells [4])",expression of cell apoptosis inhibiting factors Bcl-2 and XIAP (HepG2 cells [4])
CCC(CCC(C)C1CCC2C3CCC4(O)CC(O)CCC4(C)C3CCC12C)C(C)C (stereo not drawn) [5β-hydroxysitostanol],~6,~9,~15,no cytotoxicity,dose-dependent decrease,shrinkage,significantly condensed,remarkably reduced,increased,25.83,upregulates,upregulate,–,–,–,–,–
CC[C@H](/C=C/[C@@H](C)[C@H]1CC[C@H]2[C@@H]3CC=C4C[C@@H](O)CC[C@]4(C)[C@H]3CC[C@]12C)C(C)C [stigmasterol],–,–,–,–,dose-dependent decrease,shrinkage,significantly condensed,remarkably reduced,increased,26.87,–,upregulate,~40,~43,~54,upregulates,downregulates
